Source: PubChem BioAssay AID2060895 (Molecular Pharmacology Branch, DTP, NCI, 2025)
One block for each compound: values may come before it.

Test system: PDC 899932-113-R3-J6 complex spheroid viability
Assay: Anticancer human tumor 899932-113-R3-J6-PDC patient-derived melanoma cell line growth inhibition [RAS]
Details: for IC50: curve of first compound; for viability, T/C: stronger effect = lower value
Method in brief: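 Agents were tested in combination matrices in half-log decrements from a top concentration at or near clinical Cmax (10 microM if undetermined). Targets were multi-cell spheroids of tumour lines plus HUVEC and MSC stromal cells.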

[1] = second compound 0.0316 µM, first compound 0.0316 µM
[2] = second compound 0.0316 µM, first compound 0.1 µM
[3] = second compound 0.0316 µM, first compound 0.316 µM
[4] = second compound 0.0316 µM, first compound 1 µM
[5] = second compound 0.0316 µM, first compound 3.16 µM
[6] = second compound 0.0316 µM, first compound 10 µM
[7] = second compound 0.1 µM, first compound 0.0316 µM
[8] = second compound 0.1 µM, first compound 0.1 µM
[9] = second compound 0.1 µM, first compound 0.316 µM
[10] = second compound 0.1 µM, first compound 1 µM
[11] = second compound 0.1 µM, first compound 3.16 µM
[12] = second compound 0.1 µM, first compound 10 µM
[13] = second compound 0.316 µM, first compound 0.0316 µM
[14] = second compound 0.316 µM, first compound 0.1 µM
[15] = second compound 0.316 µM, first compound 0.316 µM
[16] = second compound 0.316 µM, first compound 1 µM
[17] = second compound 0.316 µM, first compound 3.16 µM
[18] = second compound 0.316 µM, first compound 10 µM
[19] = second compound 1 µM, first compound 0.0316 µM
[20] = second compound 1 µM, first compound 0.1 µM
[21] = second compound 1 µM, first compound 0.316 µM
[22] = second compound 1 µM, first compound 1 µM
[23] = second compound 1 µM, first compound 3.16 µM
[24] = second compound 1 µM, first compound 10 µM
[25] = second compound 3.16 µM, first compound 0.0316 µM
[26] = second compound 3.16 µM, first compound 0.1 µM
[27] = second compound 3.16 µM, first compound 0.316 µM
[28] = second compound 3.16 µM, first compound 1 µM
[29] = second compound 3.16 µM, first compound 3.16 µM
[30] = second compound 3.16 µM, first compound 10 µM
[31] = second compound 10 µM, first compound 0.0316 µM
[32] = second compound 10 µM, first compound 0.1 µM
[33] = second compound 10 µM, first compound 0.316 µM
[34] = second compound 10 µM, first compound 1 µM
[35] = second compound 10 µM, first compound 3.16 µM
[36] = second compound 10 µM, first compound 10 µM
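Wherever viability, T/C is given: spheroids exposed to agents for seven days before readout; 100% = DMSO vehicle control wells.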

- IC50 (second compound 0.0316 µM): < 31.6 nM
- IC50 (second compound 0.1 µM): < 31.6 nM
- IC50 (second compound 0.316 µM): < 31.6 nM
- IC50 (second compound 1 µM): < 31.6 nM
- IC50 (second compound 3.16 µM): < 31.6 nM
- IC50 (second compound 10 µM): < 31.6 nM
SMILES: CC(=O)OC12COC1CC(O)C1(C)C(=O)C(O)C3=C(C)C(OC(=O)C(O)C(NC(=O)OC(C)(C)C)c4ccccc4)CC(O)(C(OC(=O)c4ccccc4)C21)C3(C)C (stereo not drawn) + C#Cc1c(F)ccc2cc(O)cc(-c3ncc4c(N5CC6CCC(C5)N6)nc(OCC56CCCN5CC(F)C6)nc4c3F)c12
- viability, T/C [1]: 33.1%
- viability, T/C [2]: 32.1%
- viability, T/C [3]: 39.9%
- viability, T/C [4]: 48.3%
- viability, T/C [5]: 67.1%
- viability, T/C [6]: 67.7%
- viability, T/C [7]: 31.8%
- viability, T/C [8]: 31.7%
- viability, T/C [9]: 36.1%
- viability, T/C [10]: 49.5%
- viability, T/C [11]: 74.5%
- viability, T/C [12]: 81.8%
- viability, T/C [13]: 32.3%
- viability, T/C [14]: 30.5%
- viability, T/C [15]: 38.8%
- viability, T/C [16]: 53.4%
- viability, T/C [17]: 67.4%
- viability, T/C [18]: 82.8%
- viability, T/C [19]: 30.7%
- viability, T/C [20]: 35%
- viability, T/C [21]: 41.3%
- viability, T/C [22]: 45.5%
- viability, T/C [23]: 75.1%
- viability, T/C [24]: 78.9%
- viability, T/C [25]: 32.1%
- viability, T/C [26]: 34.4%
- viability, T/C [27]: 37.5%
- viability, T/C [28]: 49.6%
- viability, T/C [29]: 63.2%
- viability, T/C [30]: 73.9%
- viability, T/C [31]: 35.3%
- viability, T/C [32]: 28.9%
- viability, T/C [33]: 36.4%
- viability, T/C [34]: 46.5%
- viability, T/C [35]: 66.4%
- viability, T/C [36]: 69.7%

- IC50 (second compound 0.0316 µM): > 10000 nM
- IC50 (second compound 0.1 µM): > 10000 nM
- IC50 (second compound 0.316 µM): > 10000 nM
- IC50 (second compound 1 µM): > 10000 nM
- IC50 (second compound 3.16 µM): > 10000 nM
- IC50 (second compound 10 µM): > 10000 nM
SMILES: Cc1nc(N2CCC3(CC2)COC(C)C3N)c(CO)nc1Sc1ccnc(N)c1Cl (stereo not drawn) + C#Cc1c(F)ccc2cc(O)cc(-c3ncc4c(N5CC6CCC(C5)N6)nc(OCC56CCCN5CC(F)C6)nc4c3F)c12
- viability, T/C [1]: 98.1%
- viability, T/C [2]: 104%
- viability, T/C [3]: 108%
- viability, T/C [4]: 104%
- viability, T/C [5]: 118%
- viability, T/C [6]: 119%
- viability, T/C [7]: 99.3%
- viability, T/C [8]: 99.1%
- viability, T/C [9]: 107%
- viability, T/C [10]: 103%
- viability, T/C [11]: 114%
- viability, T/C [12]: 123%
- viability, T/C [13]: 111%
- viability, T/C [14]: 101%
- viability, T/C [15]: 96.3%
- viability, T/C [16]: 118%
- viability, T/C [17]: 117%
- viability, T/C [18]: 119%
- viability, T/C [19]: 106%
- viability, T/C [20]: 109%
- viability, T/C [21]: 108%
- viability, T/C [22]: 113%
- viability, T/C [23]: 116%
- viability, T/C [24]: 122%
- viability, T/C [25]: 126%
- viability, T/C [26]: 110%
- viability, T/C [27]: 108%
- viability, T/C [28]: 112%
- viability, T/C [29]: 122%
- viability, T/C [30]: 121%
- viability, T/C [31]: 106%
- viability, T/C [32]: 111%
- viability, T/C [33]: 112%
- viability, T/C [34]: 123%
- viability, T/C [35]: 113%
- viability, T/C [36]: 123%

- IC50 (second compound 0.0316 µM): > 10000 nM
- IC50 (second compound 0.1 µM): > 10000 nM
- IC50 (second compound 0.316 µM): > 10000 nM
- IC50 (second compound 1 µM): > 10000 nM
- IC50 (second compound 3.16 µM): > 10000 nM
- IC50 (second compound 10 µM): > 10000 nM
SMILES: NC1c2ccccc2OC12CCN(c1cnc3c(N4CCCc5ncccc54)n[nH]c3n1)CC2 (stereo not drawn) + C#Cc1c(F)ccc2cc(O)cc(-c3ncc4c(N5CC6CCC(C5)N6)nc(OCC56CCCN5CC(F)C6)nc4c3F)c12
- viability, T/C [1]: 108%
- viability, T/C [2]: 103%
- viability, T/C [3]: 117%
- viability, T/C [4]: 121%
- viability, T/C [5]: 104%
- viability, T/C [6]: 98.8%
- viability, T/C [7]: 111%
- viability, T/C [8]: 115%
- viability, T/C [9]: 114%
- viability, T/C [10]: 114%
- viability, T/C [11]: 117%
- viability, T/C [12]: 96.4%
- viability, T/C [13]: 108%
- viability, T/C [14]: 120%
- viability, T/C [15]: 105%
- viability, T/C [16]: 116%
- viability, T/C [17]: 110%
- viability, T/C [18]: 96.6%
- viability, T/C [19]: 106%
- viability, T/C [20]: 104%
- viability, T/C [21]: 124%
- viability, T/C [22]: 112%
- viability, T/C [23]: 105%
- viability, T/C [24]: 111%
- viability, T/C [25]: 134%
- viability, T/C [26]: 112%
- viability, T/C [27]: 135%
- viability, T/C [28]: 133%
- viability, T/C [29]: 120%
- viability, T/C [30]: 107%
- viability, T/C [31]: 123%
- viability, T/C [32]: 126%
- viability, T/C [33]: 120%
- viability, T/C [34]: 117%
- viability, T/C [35]: 112%
- viability, T/C [36]: 86.5%

- IC50 (second compound 0.0316 µM): 17.6 nM
- IC50 (second compound 0.1 µM): 19.3 nM
- IC50 (second compound 0.316 µM): 17.1 nM
- IC50 (second compound 1 µM): 19.2 nM
- IC50 (second compound 3.16 µM): 16.5 nM
- IC50 (second compound 10 µM): 17.6 nM
SMILES: Nc1ccn(C2OC(CO)C(O)C2(F)F)c(=O)n1 (stereo not drawn) + C#Cc1c(F)ccc2cc(O)cc(-c3ncc4c(N5CC6CCC(C5)N6)nc(OCC56CCCN5CC(F)C6)nc4c3F)c12
- viability, T/C (second compound 0.0316 µM, first compound 0.00316 µM): 102%
- viability, T/C (second compound 0.0316 µM, first compound 0.01 µM): 65.1%
- viability, T/C [1]: 35.3%
- viability, T/C [2]: 21.2%
- viability, T/C [3]: 18.6%
- viability, T/C [4]: 22.1%
- viability, T/C (second compound 0.1 µM, first compound 0.00316 µM): 95%
- viability, T/C (second compound 0.1 µM, first compound 0.01 µM): 71.7%
- viability, T/C [7]: 34.3%
- viability, T/C [8]: 18.9%
- viability, T/C [9]: 20.5%
- viability, T/C [10]: 20.6%
- viability, T/C (second compound 0.316 µM, first compound 0.00316 µM): 99.1%
- viability, T/C (second compound 0.316 µM, first compound 0.01 µM): 65.1%
- viability, T/C [13]: 33.7%
- viability, T/C [14]: 17.9%
- viability, T/C [15]: 20.2%
- viability, T/C [16]: 20.1%
- viability, T/C (second compound 1 µM, first compound 0.00316 µM): 99.2%
- viability, T/C (second compound 1 µM, first compound 0.01 µM): 70.4%
- viability, T/C [19]: 35.6%
- viability, T/C [20]: 16.4%
- viability, T/C [21]: 15.3%
- viability, T/C [22]: 20.8%
- viability, T/C (second compound 3.16 µM, first compound 0.00316 µM): 103%
- viability, T/C (second compound 3.16 µM, first compound 0.01 µM): 65.6%
- viability, T/C [25]: 29.9%
- viability, T/C [26]: 19.8%
- viability, T/C [27]: 17.5%
- viability, T/C [28]: 18.8%
- viability, T/C (second compound 10 µM, first compound 0.00316 µM): 102%
- viability, T/C (second compound 10 µM, first compound 0.01 µM): 67.2%
- viability, T/C [31]: 33.5%
- viability, T/C [32]: 15.2%
- viability, T/C [33]: 18.3%
- viability, T/C [34]: 19.2%
